{"source": "paper PMC8599359", "about": "(Molecular Neurobiology, 2021)", "key": {"[1]": {"system": "C3H/HeJ mice pups, hippocampus", "test": "Magnetic resonance spectroscopy (1H MRS) of pups", "assay_type": "in vivo, mouse", "experimental": "After DTI measurements, the same animals were scanned by ^1H MRS to measure metabolite concentrations. N-Acetylaspartate (NAA), total choline (tCho), and total creatine (tCre) were measured in HI region. Animals from both groups, DTG and control, were scanned. SemiLASER localization with timing parameters (TE/TR = 40/4000 ms, 576 averages, 2048 points) was used to obtain MRS data. Voxel was located on HI. All first- and second-order shim terms were automatically adjusted using MAPSHIM® (Bruker, Billerica, MA). A final shim performed manually, if necessary, to achieve a water line width of 10–15 Hz. The water signal was suppressed by variable power radiofrequency (RF) pulses with optimized relaxation delays (VAPOR). MRS data were quantified using LCModel (LCMODEL Inc., CA). Results were expressed as a percentage of the sum of all 3 metabolites as a semi-quantitative method for reporting metabolite concentrations in institutional units (I.U.). Glycerophosphocholine and phosphocholine were added and reported as total choline-containing compounds."}, "MMP-9": {"target": "MMP-9 (Homo sapiens, UniProt P14780)", "sequence (P14780 94-707)": "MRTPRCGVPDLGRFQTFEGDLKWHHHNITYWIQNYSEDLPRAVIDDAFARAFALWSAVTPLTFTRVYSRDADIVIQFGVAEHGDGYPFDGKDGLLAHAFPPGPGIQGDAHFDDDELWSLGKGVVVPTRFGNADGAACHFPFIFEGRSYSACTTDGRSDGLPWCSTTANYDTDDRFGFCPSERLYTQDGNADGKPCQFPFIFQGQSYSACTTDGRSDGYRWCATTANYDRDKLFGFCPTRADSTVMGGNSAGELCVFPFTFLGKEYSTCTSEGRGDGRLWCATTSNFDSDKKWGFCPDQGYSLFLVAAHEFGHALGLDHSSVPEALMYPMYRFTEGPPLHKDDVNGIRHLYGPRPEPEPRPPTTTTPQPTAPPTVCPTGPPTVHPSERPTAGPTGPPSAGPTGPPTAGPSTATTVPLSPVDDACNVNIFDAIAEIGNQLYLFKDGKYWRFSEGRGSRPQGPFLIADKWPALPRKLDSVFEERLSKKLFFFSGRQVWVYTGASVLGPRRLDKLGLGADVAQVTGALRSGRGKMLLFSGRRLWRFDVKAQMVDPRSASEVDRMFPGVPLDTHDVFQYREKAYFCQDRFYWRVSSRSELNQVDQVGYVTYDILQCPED", "test": "Gelatin zymography of medium of PMA-stimulated THP-1 cells", "assay_type": "cell-based", "parameters": "endogenous in cells; host or cells: PMA-stimulated THP-1 cells, culture medium", "conditions": "100 µM, 18 h, compared to controls", "experimental": "THP-1 cells were plated in 12-well plates at a density of 1 × 10^6 cells per well. First, THP-1 were treated with phorbol-12-myristate-13-acetate (PMA) for 24 h to promote the differentiation of cells into macrophages and stimulate MMP secretion. […] For each treatment, biological triplicate samples were utilized. Following treatment, cell medium was collected from each well and centrifuged at 800 × g for 10 min at 4 °C to remove any cell debris. Collected samples were stored at − 80 °C for further analysis. A 10% SDS–polyacrylamide gel containing 0.1% gelatin was loaded with 3 µg of protein from cell medium for gelatin zymography. In parallel, second 10% SDS–polyacrylamide gel was used to assess equal protein loading. In addition, recombinant human MMP-2 and MMP-9 (10 ng each) were loaded as standards (EMD Millipore, Burlington, MA). Gel ran at 60 V until the loading dye reached the bottom of the gel. After the run, the gelatin gel was washed with water for 15 min and incubated in renaturation buffer [2.5% (v/v) Triton X-100 in Milli-Q water] for 60 min at room temperature. The renaturation buffer was replaced with a fresh renaturation buffer at the interval of 30 min. […] Relative activity of MMPs was measured by quantitating band density by ImageJ software and normalized with respective standard."}, "C3H/HeJ mice pups": {"system": "C3H/HeJ mice pups", "test": "Pregnancy and postnatal outcomes after in utero exposure", "assay_type": "in vivo, mouse", "description": "For all animal experiments, C3H/HeJ (10–12 weeks of age, male and female) were purchased from the Jackson Laboratory (Bar Harbor, ME), and were housed in microisolator cages containing autoclaved corncob bedding, and maintained on a 12‐h light‐dark cycle in climate‐controlled laboratory animal facilities approved by the University of Nebraska Medical Center Institutional Animal Care and Use Committee (IACUC). Mice were given free access to irradiated rodent feed (TD. 180,911, Envigo Teklad diet, Madison, WI) and sterile water. Animals were acclimated to the environment for approximately 7–14 days to determine that they were healthy based on observed behavior and weight gain. A female was placed with a male overnight for the purpose of timed matings. The following morning males were removed from the cages and positive vaginal plugs were identified. […] The time of conception was considered to be midnight on the evening of the mating. Treatment of plugged females was started at the morning of the day of plug detection (gestation day (GD) 0.5).\nMice pups at this stage of development (PND 28) are equivalent to humans of 2 years of age. […] Pregnant dams were randomly assigned to DTG or vehicle group. […] Survival rate of pups was 100% between PND 4 and 21 in both groups. Further body weights of pups were measured during preweaning duration. […] Furthermore, between age PND 28 and 34, live animals were evaluated for biochemical changes in the brain by magnetic resonance imaging (MRI) (Fig. 5D–F). All the tests were performed around 6 days post weaning to avoid confounding effect of stress related to separation from mother. Microstructural and metabolite measurements were conducted in live pups using bioimaging methods, diffusion tensor imaging (DTI), and magnetic resonance spectroscopy (^1H MRS), respectively (Fig. 5D–F). First, pups were scanned using DTI to determine microstructural changes in six different brain regions, hippocampus (HI), cortex (CT), striatum (ST), thalamus (TH), hypothalamus (HY), and cerebellum (CE). […] As FA represents anisotropic movement of water molecules along the axons, reduction in FA values indicated axonal and/or myelin damage in developing brain of adolescent pups in the DTG-treated group. […] This allowed evaluation of sex as a biological variant (Supplementary Fig. 4). […] Further, the same pups were scanned using ^1H MRS to measure N-acetylaspartate (NAA), total choline (tCho), and total creatine (tCre) in hippocampus (HI) only (Fig. 5F). NAA is a highly concentrated metabolite in the CNS and is a neuron-specific metabolite that acts as a non-invasive ^1H MRS marker for neuronal integrity, health, and cell number. […] Similar to DTI, sex differences were evaluated in the ^1H MRS study (Supplementary Fig. 5)."}, "HIV-1 integrase": {"target": "HIV-1 integrase", "conditions": "read-out: IC50 as INSTI; cited from earlier work"}, "[2]": {"conditions": "dams 50 mg/kg/day oral through entire gestation"}}, "data": [{"compound": "C[C@@H]1CCO[C@H]2Cn3cc(C(=O)NCc4ccc(F)cc4F)c(=O)c(O)c3C(=O)N12", "note": "[DTG, Dolutegravir]", "values": [{"measurement": "NAA levels in hippocampus vs control", "setting": "[1]; PND 28-34, all pups", "result": "significantly reduced"}, {"measurement": "tCho levels in hippocampus vs control", "setting": "[1]; PND 28-34, all pups", "result": "significant increase"}, {"measurement": "tCre (internal reference) in hippocampus vs control", "setting": "[1]; PND 28-34, all pups", "result": "No differences"}, {"measurement": "NAA in hippocampus vs control", "setting": "[1]; female pups", "result": "significantly reduced"}, {"measurement": "Relative activity of pro form of MMP-9", "setting": "MMP-9", "result": "significantly decreased"}, {"measurement": "Average body weight of pups", "setting": "C3H/HeJ mice pups; PND 12, in utero exposure", "result": "5.1 ± 0.4", "unit": "g"}, {"measurement": "Average body weight of pups", "setting": "C3H/HeJ mice pups; PND 21, in utero exposure", "result": "7.5 ± 0.4", "unit": "g"}, {"measurement": "No. of female pups delivered per litter", "setting": "C3H/HeJ mice pups; [2]", "result": 1.2}, {"measurement": "No. of male pups delivered per litter", "setting": "C3H/HeJ mice pups; [2]", "result": 2.2}, {"measurement": "No. of pups delivered per litter (average litter size)", "setting": "C3H/HeJ mice pups; [2]", "result": 3.5}, {"measurement": "male to female ratio per litter", "setting": "C3H/HeJ mice pups; [2]", "result": 2.0}, {"measurement": "% pup survival (PND 4 to PND 21)", "setting": "C3H/HeJ mice pups; in utero exposure", "result": 100, "unit": "%"}, {"measurement": "% pup survival (birth to PND 4)", "setting": "C3H/HeJ mice pups; in utero exposure", "result": 92.8, "unit": "%"}, {"measurement": "structural malformations or variations in newborn pups", "setting": "C3H/HeJ mice pups; in utero exposure", "result": "no structural malformations or variations"}, {"measurement": "IC50", "setting": "HIV-1 integrase", "result": 2.7, "unit": "nM"}]}]}
